{
  "source": "paper PMC12090182",
  "about": "“Repurposing of the RIPK1-Selective Benzo[1,4]oxazepin-4-one Scaffold for the Development of a Type III LIMK1/2 Inhibitor” (ACS Chemical Biology, 2025)",
  "experiment_in_all_cases": "DSF selectivity screening",
  "assay_type_in_all_cases": "binding",
  "conditions_in_all_cases": "10 μM compound",
  "key": {"ABL1A": {"target": "ABL1A (Homo sapiens, UniProt P00519)", "sequence (P00519 229-500)": "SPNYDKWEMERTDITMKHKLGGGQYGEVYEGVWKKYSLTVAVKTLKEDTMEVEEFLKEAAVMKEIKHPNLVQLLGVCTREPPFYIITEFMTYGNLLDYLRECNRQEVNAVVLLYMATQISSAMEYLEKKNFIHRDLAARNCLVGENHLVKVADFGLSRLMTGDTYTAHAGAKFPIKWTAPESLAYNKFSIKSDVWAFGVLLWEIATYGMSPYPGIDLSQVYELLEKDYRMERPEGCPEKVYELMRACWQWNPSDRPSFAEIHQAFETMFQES", "procedure": "(§1) The assay was performed as previously described.[29],[35] Briefly, recombinant protein kinase domains at a concentration of 2 μM were mixed with a 10 μM compound in a buffer containing 20 mM HEPES, pH 7.5, and 500 mM NaCl. SYPRO Orange (5000×, Invitrogen) was added as a fluorescence probe (1 μL per mL). Subsequently, temperature-dependent protein unfolding profiles were measured using a QuantStudio 5 real-time PCR machine (Thermo Fisher). Excitation and emission filters were set to 465 and 590 nm, respectively. The temperature was raised with a step rate of 3 °C per minute. Data points were analyzed with internal software (Thermal Shift Software version 1.4, Thermo Fisher) using the Boltzmann equation to determine the inflection point of the transition curve (Table S4)."}, "AKT3A": {"target": "AKT3A (Homo sapiens, UniProt Q9Y243)", "sequence (Q9Y243 148-479)": "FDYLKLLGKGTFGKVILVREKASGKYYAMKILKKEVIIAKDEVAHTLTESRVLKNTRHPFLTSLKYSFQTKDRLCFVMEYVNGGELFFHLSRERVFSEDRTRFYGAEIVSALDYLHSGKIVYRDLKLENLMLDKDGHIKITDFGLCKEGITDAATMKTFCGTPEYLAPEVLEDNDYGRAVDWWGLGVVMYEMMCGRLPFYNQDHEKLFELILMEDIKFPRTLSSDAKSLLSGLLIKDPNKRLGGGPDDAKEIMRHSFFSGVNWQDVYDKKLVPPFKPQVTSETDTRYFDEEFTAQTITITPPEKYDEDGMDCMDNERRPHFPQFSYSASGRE", "procedure": "as §1"}, "AURKBA": {"target": "AURKBA (Homo sapiens, UniProt Q96GD4)", "procedure": "as §1"}, "BMPR2A": {"target": "BMPR2A (Homo sapiens, UniProt Q13873)", "procedure": "as §1"}, "BRAFA": {"target": "BRAFA (Homo sapiens, UniProt P15056)", "procedure": "as §1"}, "CAMK2DA": {"target": "CAMK2DA (Homo sapiens, UniProt Q13557)", "procedure": "as §1"}, "CAMKK2B": {"target": "CAMKK2B (Homo sapiens, UniProt Q96RR4)", "procedure": "as §1"}, "CASKA": {"target": "CASKA (Homo sapiens, UniProt O14936)", "sequence (O14936 12-276)": "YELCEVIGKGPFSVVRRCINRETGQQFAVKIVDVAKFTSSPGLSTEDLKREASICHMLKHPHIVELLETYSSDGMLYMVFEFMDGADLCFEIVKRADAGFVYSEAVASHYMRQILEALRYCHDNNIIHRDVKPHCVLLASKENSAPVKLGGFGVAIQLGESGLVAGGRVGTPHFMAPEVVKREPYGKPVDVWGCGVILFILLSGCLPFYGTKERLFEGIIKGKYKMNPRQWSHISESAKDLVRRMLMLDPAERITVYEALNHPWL", "procedure": "as §1"}, "CDKL1A": {"target": "CDKL1A (Homo sapiens, UniProt Q00532)", "procedure": "as §1"}, "CSNK1DA": {"target": "CSNK1DA (Homo sapiens, UniProt P48730)", "procedure": "as §1"}, "CSNK2A1A": {"target": "CSNK2A1A (Homo sapiens, UniProt P68400)", "sequence (P68400 whole entry)": "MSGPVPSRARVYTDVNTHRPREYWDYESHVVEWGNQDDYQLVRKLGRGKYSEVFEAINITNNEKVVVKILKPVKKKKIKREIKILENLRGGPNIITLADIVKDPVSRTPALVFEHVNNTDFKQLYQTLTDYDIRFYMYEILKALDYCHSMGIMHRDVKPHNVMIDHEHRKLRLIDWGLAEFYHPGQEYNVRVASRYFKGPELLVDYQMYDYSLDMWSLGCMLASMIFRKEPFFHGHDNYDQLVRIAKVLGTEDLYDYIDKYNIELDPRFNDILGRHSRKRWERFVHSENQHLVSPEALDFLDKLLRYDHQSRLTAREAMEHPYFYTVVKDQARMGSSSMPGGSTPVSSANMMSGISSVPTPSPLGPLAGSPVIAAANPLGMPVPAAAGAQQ", "procedure": "as §1"}, "DMPKA": {"target": "DMPKA (Homo sapiens, UniProt Q09013)", "procedure": "as §1"}, "EPHA2A": {"target": "EPHA2A (Homo sapiens, UniProt P29317)", "sequence (P29317 596-900)": "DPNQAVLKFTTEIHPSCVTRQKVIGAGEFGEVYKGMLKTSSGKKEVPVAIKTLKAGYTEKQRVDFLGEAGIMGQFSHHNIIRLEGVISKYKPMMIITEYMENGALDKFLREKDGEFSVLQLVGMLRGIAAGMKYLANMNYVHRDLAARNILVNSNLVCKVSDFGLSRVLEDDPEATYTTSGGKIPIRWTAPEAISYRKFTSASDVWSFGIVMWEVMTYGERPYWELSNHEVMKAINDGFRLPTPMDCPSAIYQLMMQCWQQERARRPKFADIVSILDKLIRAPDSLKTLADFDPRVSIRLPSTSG", "procedure": "as §1"}, "EPHA7A": {"target": "EPHA7A (Homo sapiens, UniProt Q15375)", "procedure": "as §1"}, "EPHB3A": {"target": "EPHB3A (Homo sapiens, UniProt P54753)", "sequence (P54753 616-910)": "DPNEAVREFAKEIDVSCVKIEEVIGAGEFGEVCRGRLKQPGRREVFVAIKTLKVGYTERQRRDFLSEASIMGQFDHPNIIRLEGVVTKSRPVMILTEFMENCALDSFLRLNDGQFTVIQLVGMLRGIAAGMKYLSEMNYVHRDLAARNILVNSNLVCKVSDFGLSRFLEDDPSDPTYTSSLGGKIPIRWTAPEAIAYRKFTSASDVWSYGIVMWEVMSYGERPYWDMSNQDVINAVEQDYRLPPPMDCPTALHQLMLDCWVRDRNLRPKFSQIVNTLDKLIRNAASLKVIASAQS", "procedure": "as §1"}, "GAKA": {"target": "GAKA (Homo sapiens, UniProt O14976)", "procedure": "as §1"}, "GPRK5A": {"target": "GPRK5A (Homo sapiens, UniProt P34947)", "sequence (P34947 186-514)": "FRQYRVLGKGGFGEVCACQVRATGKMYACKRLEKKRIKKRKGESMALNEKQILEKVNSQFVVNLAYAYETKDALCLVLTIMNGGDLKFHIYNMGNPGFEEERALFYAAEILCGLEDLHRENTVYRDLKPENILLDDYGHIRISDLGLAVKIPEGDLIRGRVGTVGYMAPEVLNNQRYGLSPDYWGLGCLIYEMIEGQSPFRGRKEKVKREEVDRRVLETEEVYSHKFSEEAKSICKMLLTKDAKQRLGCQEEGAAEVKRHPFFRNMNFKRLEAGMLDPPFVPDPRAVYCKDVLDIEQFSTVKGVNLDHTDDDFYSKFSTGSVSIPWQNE", "procedure": "as §1"}, "GSG2A": {"target": "GSG2A (Homo sapiens, UniProt Q8TF76)", "procedure": "as §1"}, "MAP2K4A": {"target": "MAP2K4A (Homo sapiens, UniProt P45985)", "sequence (P45985 102-367)": "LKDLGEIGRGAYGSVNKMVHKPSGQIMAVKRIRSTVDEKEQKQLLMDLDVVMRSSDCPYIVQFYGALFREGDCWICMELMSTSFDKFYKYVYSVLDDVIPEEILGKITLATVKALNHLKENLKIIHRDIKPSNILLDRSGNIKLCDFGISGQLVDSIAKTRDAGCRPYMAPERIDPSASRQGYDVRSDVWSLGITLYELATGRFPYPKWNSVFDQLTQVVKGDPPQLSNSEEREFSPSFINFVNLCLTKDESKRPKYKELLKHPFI", "procedure": "as §1"}, "MAP2K7": {"target": "MAP2K7 (Homo sapiens, UniProt O14733)", "sequence (O14733 120-380)": "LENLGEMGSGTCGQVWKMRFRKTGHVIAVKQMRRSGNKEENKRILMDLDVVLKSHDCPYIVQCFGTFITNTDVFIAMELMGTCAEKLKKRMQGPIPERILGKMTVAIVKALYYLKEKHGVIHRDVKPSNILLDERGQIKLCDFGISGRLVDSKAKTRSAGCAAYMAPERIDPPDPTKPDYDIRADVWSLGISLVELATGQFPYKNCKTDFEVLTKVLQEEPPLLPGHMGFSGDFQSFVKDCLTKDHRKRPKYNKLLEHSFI", "procedure": "as §1"}, "MAPK10A": {"target": "MAPK10A (Homo sapiens, UniProt P53779)", "procedure": "as §1"}, "MAPK14A": {"target": "MAPK14A (Homo sapiens, UniProt Q16539)", "procedure": "as §1"}, "MARK3A": {"target": "MARK3A (Homo sapiens, UniProt P27448)", "sequence (P27448 48-370)": "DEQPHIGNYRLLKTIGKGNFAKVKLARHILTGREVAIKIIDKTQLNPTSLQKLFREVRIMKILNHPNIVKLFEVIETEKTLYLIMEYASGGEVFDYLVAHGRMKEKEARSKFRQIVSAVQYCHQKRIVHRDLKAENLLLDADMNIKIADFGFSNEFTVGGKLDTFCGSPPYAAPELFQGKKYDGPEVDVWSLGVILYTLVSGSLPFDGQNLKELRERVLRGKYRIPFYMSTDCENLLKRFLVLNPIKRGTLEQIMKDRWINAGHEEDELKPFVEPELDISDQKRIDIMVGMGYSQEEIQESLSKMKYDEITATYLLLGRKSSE", "procedure": "as §1"}, "MERTKA": {"target": "MERTKA (Homo sapiens, UniProt Q12866)", "procedure": "as §1"}, "NEK2": {"target": "NEK2 (Homo sapiens, UniProt P51955)", "sequence (P51955 1-271)": "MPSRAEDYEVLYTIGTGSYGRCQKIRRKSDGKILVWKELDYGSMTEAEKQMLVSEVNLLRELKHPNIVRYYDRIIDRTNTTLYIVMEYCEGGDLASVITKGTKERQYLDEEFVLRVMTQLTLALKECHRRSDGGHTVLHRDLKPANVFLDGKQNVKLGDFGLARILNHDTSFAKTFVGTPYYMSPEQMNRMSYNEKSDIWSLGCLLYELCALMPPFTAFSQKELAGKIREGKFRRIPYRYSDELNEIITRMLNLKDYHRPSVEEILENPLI", "procedure": "as §1"}, "NEK7A": {"target": "NEK7A (Homo sapiens, UniProt Q8TDX7)", "sequence (Q8TDX7 34-299)": "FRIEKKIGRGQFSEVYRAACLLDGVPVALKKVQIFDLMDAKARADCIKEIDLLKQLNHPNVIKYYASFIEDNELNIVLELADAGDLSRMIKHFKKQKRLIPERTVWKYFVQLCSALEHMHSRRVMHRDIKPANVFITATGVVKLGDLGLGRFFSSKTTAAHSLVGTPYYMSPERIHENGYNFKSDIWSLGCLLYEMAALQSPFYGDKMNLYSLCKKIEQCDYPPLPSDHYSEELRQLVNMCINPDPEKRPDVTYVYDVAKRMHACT", "procedure": "as §1"}, "OSR1A": {"target": "OSR1A (Homo sapiens, UniProt O95747)", "sequence (O95747 17-291)": "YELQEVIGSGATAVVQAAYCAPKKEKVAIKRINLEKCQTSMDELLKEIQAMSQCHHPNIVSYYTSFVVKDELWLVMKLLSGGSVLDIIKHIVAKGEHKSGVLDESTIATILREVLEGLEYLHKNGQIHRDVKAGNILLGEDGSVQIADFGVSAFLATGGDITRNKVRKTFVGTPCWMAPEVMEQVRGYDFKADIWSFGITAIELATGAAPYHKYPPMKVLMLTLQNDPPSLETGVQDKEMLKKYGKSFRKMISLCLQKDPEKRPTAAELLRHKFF", "procedure": "as §1"}, "PDK4A": {"target": "PDK4A (Homo sapiens, UniProt Q16654)", "sequence (Q16654 whole entry)": "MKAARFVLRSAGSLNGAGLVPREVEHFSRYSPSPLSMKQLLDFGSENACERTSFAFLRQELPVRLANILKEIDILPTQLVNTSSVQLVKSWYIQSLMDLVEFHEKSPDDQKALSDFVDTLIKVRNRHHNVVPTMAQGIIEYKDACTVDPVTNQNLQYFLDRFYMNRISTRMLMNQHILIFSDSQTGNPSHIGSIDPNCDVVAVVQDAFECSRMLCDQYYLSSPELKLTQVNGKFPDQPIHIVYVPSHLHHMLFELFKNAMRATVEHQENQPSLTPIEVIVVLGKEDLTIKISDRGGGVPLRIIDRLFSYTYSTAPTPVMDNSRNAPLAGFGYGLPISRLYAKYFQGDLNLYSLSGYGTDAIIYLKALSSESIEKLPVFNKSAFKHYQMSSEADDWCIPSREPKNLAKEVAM", "procedure": "as §1"}, "PIM1A": {"target": "PIM1A (Homo sapiens, UniProt P11309)", "procedure": "as §1"}, "PKMYT1A": {"target": "PKMYT1A (Homo sapiens, UniProt Q99640)", "sequence (Q99640 75-362)": "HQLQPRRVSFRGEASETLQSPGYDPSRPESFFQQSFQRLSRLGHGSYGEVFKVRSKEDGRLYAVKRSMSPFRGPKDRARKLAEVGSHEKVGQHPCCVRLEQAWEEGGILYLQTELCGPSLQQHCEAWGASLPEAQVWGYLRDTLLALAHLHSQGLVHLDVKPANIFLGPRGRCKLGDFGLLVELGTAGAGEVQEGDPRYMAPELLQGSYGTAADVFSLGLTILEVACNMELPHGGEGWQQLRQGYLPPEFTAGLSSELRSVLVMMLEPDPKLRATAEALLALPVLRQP", "procedure": "as §1"}, "RPS6KA1A": {"system": "RPS6KA1A", "procedure": "as §1"}, "SRCA": {"target": "SRCA (Homo sapiens, UniProt P12931)", "procedure": "as §1"}, "SRPK1A": {"target": "SRPK1A (Homo sapiens, UniProt Q96SB4)", "procedure": "as §1"}, "STK38LA": {"target": "STK38LA (Homo sapiens, UniProt Q9Y2H1)", "procedure": "as §1"}, "STK39A": {"target": "STK39A (Homo sapiens, UniProt Q9UEW8)", "procedure": "as §1"}, "STK4A": {"target": "STK4A (Homo sapiens, UniProt Q13043)", "procedure": "as §1"}, "TIF1A": {"target": "TIF1A (Homo sapiens, UniProt O15164)", "procedure": "as §1"}, "TLK1A": {"target": "TLK1A (Homo sapiens, UniProt Q9UKI8)", "procedure": "as §1"}, "TOPKA": {"target": "TOPKA (Homo sapiens, UniProt Q96KB5)", "sequence (Q96KB5 32-322)": "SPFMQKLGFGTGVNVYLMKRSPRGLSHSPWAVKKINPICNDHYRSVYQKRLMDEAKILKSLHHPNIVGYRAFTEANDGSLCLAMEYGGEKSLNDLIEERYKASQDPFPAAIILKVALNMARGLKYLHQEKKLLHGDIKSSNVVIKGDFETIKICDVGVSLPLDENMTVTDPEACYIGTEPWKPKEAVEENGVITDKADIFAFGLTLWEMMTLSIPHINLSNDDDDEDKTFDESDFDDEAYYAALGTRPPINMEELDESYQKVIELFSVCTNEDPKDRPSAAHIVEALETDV", "procedure": "as §1"}, "ULK1A": {"target": "ULK1A (Homo sapiens, UniProt O75385)", "procedure": "as §1"}, "WNK1A": {"target": "WNK1A (Homo sapiens, UniProt Q9H4A3)", "procedure": "as §1"}},
  "data": [
    {"smiles": "CN1C(=O)[C@@H](N2CCc3c(nn(Cc4ccccc4)c3C(N)=O)C2=O)COc2cc(Cl)ccc21", "note": "[Compound 10, (S)-2-benzyl-6-(8-chloro-5-methyl-4-oxo-2,3,4,5-tetrahydrobenzo[b][1,4]oxazepin-3-yl)-7-oxo-4,5,6,7-tetrahydro-2H-pyrazolo[3,4-c]pyridine-3-carboxamide]", "values": [
      {"measurement": "ΔTm at 10 µM", "setting": "ABL1A", "result": -0.1, "unit": "°C"},
      {"measurement": "ΔTm at 10 µM", "setting": "AKT3A", "result": 0, "unit": "°C"},
      {"measurement": "ΔTm at 10 µM", "setting": "AURKBA", "result": 0.2, "unit": "°C"},
      {"measurement": "ΔTm at 10 µM", "setting": "BMPR2A", "result": 0.1, "unit": "°C"},
      {"measurement": "ΔTm at 10 µM", "setting": "BRAFA", "result": 0.1, "unit": "°C"},
      {"measurement": "ΔTm at 10 µM", "setting": "CAMK2DA", "result": 0.4, "unit": "°C"},
      {"measurement": "ΔTm at 10 µM", "setting": "CAMKK2B", "result": -0.2, "unit": "°C"},
      {"measurement": "ΔTm at 10 µM", "setting": "CASKA", "result": 0.1, "unit": "°C"},
      {"measurement": "ΔTm at 10 µM", "setting": "CDKL1A", "result": 0, "unit": "°C"},
      {"measurement": "ΔTm at 10 µM", "setting": "CSNK1DA", "result": 0.5, "unit": "°C"},
      {"measurement": "ΔTm at 10 µM", "setting": "CSNK2A1A", "result": -0.1, "unit": "°C"},
      {"measurement": "ΔTm at 10 µM", "setting": "DMPKA", "result": 0.1, "unit": "°C"},
      {"measurement": "ΔTm at 10 µM", "setting": "EPHA2A", "result": 0, "unit": "°C"},
      {"measurement": "ΔTm at 10 µM", "setting": "EPHA7A", "result": -0.1, "unit": "°C"},
      {"measurement": "ΔTm at 10 µM", "setting": "EPHB3A", "result": 0.2, "unit": "°C"},
      {"measurement": "ΔTm at 10 µM", "setting": "GAKA", "result": 0, "unit": "°C"},
      {"measurement": "ΔTm at 10 µM", "setting": "GPRK5A", "result": -0.2, "unit": "°C"},
      {"measurement": "ΔTm at 10 µM", "setting": "GSG2A", "result": 0.2, "unit": "°C"},
      {"measurement": "ΔTm at 10 µM", "setting": "MAP2K4A", "result": 0.1, "unit": "°C"},
      {"measurement": "ΔTm at 10 µM", "setting": "MAP2K7", "result": 1.1, "unit": "°C"},
      {"measurement": "ΔTm at 10 µM", "setting": "MAPK10A", "result": 0, "unit": "°C"},
      {"measurement": "ΔTm at 10 µM", "setting": "MAPK14A", "result": 0.1, "unit": "°C"},
      {"measurement": "ΔTm at 10 µM", "setting": "MARK3A", "result": 0.3, "unit": "°C"},
      {"measurement": "ΔTm at 10 µM", "setting": "MERTKA", "result": 0.1, "unit": "°C"},
      {"measurement": "ΔTm at 10 µM", "setting": "NEK2", "result": 1.3, "unit": "°C"},
      {"measurement": "ΔTm at 10 µM", "setting": "NEK7A", "result": 0, "unit": "°C"},
      {"measurement": "ΔTm at 10 µM", "setting": "OSR1A", "result": 0.4, "unit": "°C"},
      {"measurement": "ΔTm at 10 µM", "setting": "PDK4A", "result": 0, "unit": "°C"},
      {"measurement": "ΔTm at 10 µM", "setting": "PIM1A", "result": -0.9, "unit": "°C"},
      {"measurement": "ΔTm at 10 µM", "setting": "PKMYT1A", "result": -0.1, "unit": "°C"},
      {"measurement": "ΔTM", "setting": "RPS6KA1A", "result": 0, "unit": "K"},
      {"measurement": "ΔTm at 10 µM", "setting": "SRCA", "result": 0.1, "unit": "°C"},
      {"measurement": "ΔTm at 10 µM", "setting": "SRPK1A", "result": 0, "unit": "°C"},
      {"measurement": "ΔTm at 10 µM", "setting": "STK38LA", "result": 0, "unit": "°C"},
      {"measurement": "ΔTm at 10 µM", "setting": "STK39A", "result": 0.1, "unit": "°C"},
      {"measurement": "ΔTm at 10 µM", "setting": "STK4A", "result": -0.5, "unit": "°C"},
      {"measurement": "ΔTm at 10 µM", "setting": "TIF1A", "result": 0.2, "unit": "°C"},
      {"measurement": "ΔTm at 10 µM", "setting": "TLK1A", "result": 0, "unit": "°C"},
      {"measurement": "ΔTm at 10 µM", "setting": "TOPKA", "result": -0.1, "unit": "°C"},
      {"measurement": "ΔTm at 10 µM", "setting": "ULK1A", "result": 0.1, "unit": "°C"},
      {"measurement": "ΔTm at 10 µM", "setting": "WNK1A", "result": 0.4, "unit": "°C"}
    ]}
  ]
}
